Laboratory results published in patent US12435046B2, “Alkynyl quinazoline compounds” (Black Diamond Therapeutics, Inc., priority 2019, dated 2025).

Key:
Format in all cases: cell-based
Conditions in all cases: Table A; BaF3 cells, 3 days
HER2 S310F = molecular target: T1, HER2 S310F (Homo sapiens, UniProt P04626, S310F); test: BaF3 cell proliferation assay (CellTiterGlo), HER2 S310F
T1 construct: expressed in transfected cells; host or cells: BaF3 (murine pro-B) cells

EGFR V3 = molecular target: T2, EGFR V3 (Homo sapiens, UniProt P00533, DELINS30-297G); test: BaF3 cell proliferation assay (CellTiterGlo), EGFR V3
T2 construct: expressed in transfected cells; host or cells: BaF3 (murine pro-B) cells, retroviral transduction with pMXs-IRES-Blasticidin
T2 sequence (P00533 with tags, fused parts or gaps DELINS30-297G): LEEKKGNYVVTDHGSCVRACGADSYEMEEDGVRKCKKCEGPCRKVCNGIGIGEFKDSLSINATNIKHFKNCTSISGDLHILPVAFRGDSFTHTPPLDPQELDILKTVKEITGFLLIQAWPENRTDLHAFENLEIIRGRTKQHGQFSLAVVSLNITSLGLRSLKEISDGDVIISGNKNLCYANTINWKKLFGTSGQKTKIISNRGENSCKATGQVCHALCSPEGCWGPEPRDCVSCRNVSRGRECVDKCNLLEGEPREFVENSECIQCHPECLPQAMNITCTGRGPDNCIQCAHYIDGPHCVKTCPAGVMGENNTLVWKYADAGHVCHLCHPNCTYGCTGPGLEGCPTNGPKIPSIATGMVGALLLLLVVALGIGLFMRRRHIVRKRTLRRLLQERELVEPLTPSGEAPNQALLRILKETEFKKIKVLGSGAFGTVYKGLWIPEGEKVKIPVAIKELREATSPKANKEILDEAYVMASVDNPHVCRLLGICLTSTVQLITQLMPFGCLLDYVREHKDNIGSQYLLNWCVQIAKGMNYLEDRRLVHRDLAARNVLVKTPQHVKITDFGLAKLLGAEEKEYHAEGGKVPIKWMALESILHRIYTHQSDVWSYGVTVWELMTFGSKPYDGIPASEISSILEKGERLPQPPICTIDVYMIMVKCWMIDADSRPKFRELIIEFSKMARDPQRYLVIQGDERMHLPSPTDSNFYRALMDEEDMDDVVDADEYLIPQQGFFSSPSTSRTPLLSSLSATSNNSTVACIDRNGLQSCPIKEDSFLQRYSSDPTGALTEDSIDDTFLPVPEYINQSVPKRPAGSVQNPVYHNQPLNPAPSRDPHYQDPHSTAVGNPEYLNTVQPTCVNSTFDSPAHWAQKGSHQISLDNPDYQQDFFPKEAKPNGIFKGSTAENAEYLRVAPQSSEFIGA
Description: (§1) Retroviral Production: EGFR mutants were subcloned into pMXs-IRES-Blasticidin (RTV-016, Cell Biolabs, San Diego, CA). Retroviral expression vector retrovirus was produced by transient transfection of HEK 293T cells with the retroviral EGFR mutant expression vector pMXs-IRES-Blasticidin (RTV-016, Cell Biolabs), pCMV-Gag-Pol vector and pCMV-VSV-G-Envelope vector. Briefly, HEK 293T/17 cells were plated in 100 mm collagen coated plate (354450, Corning Life Sciences, Tewksbury, MA) (4×10^5 per plate) and incubated overnight. The next day, retroviral plasmids (3 ng of EGFR mutant, 1.0 ng of pCMV-Gag-Pol and 0.5 ng pCMV-VSV-G) were mixed in 500 n1 of Optimem (31985, Life Technologies). The mixture was incubated at room temperature for 5 min and then added to Optimem containing transfection reagent Lipofectamine (11668, Invitrogen) and incubated for 20 minutes. Mixture was then added dropwise to HEK 293T cells. The next day the medium was replaced with fresh culture medium and retrovirus was harvested @ 24 and 48 hrs.
(§2) Generation of EGFR mutant stable cell lines: BaF3 cells (1.5E5 cells) were infected with 1 ml of viral supernatant supplemented with 8 ng/ml polybrene by centrifuging for 30 min at 1000 rpm. Cells were placed in a 37° C. incubator overnight. Cells were then spun for 5 minutes to pellet the cells. Supernatant was removed and cells re-infected a fresh 1 ml of viral supernatant supplemented with 8 ng/ml polybrene by centrifuging for 30 min at 1000 rpm. Cells were placed in 37° C. incubator overnight. Cells were then maintained in RPMI containing 10% Heat Inactivated FBS, 2% L-glutamine containing 10 ng/ml IL-3. After 48 hours cells were selected for retroviral infection in 10 […] for one week. Blasticidin resistant populations were washed twice in phosphate buffered saline before plating in media lacking IL-3 to select for IL-3 independent growth.
(§3) Assay for cell proliferation: BaF3 cell lines were resuspended at 1.3E5 c/ml in RPMI containing 10% Heat Inactivated FBS, 2% L-glutamine and 1% Pen/Strep and dispensed in triplicate (17.5E4 c/well) into 96 well plates. To determine the effect of drug on cell proliferation, cells incubated for 3 days in the presence of vehicle control or test drug at varying concentrations. Inhibition of cell growth was determined by luminescent quantification of intracellular ATP content using CellTiterGlo (Promega), according to the protocol provided by the manufacturer. Comparison of cell number on day 0 versus 72 hours post drug treatment was used to plot dose-response curves. The number of viable cells was determined and normalized to vehicle-treated controls. Inhibition of proliferation, relative to vehicle-treated controls was expressed as a fraction of 1 and graphed using PRISM® software (Graphpad Software, San Diego, CA). EC50 values were determined with the same application.

EGFR wt = molecular target: T3, EGFR wt (Homo sapiens, UniProt P00533); test: BaF3 cell proliferation assay (CellTiterGlo), EGFR wt
T3 construct: expressed in transfected cells; host or cells: BaF3 (murine pro-B) cells, retroviral transduction with pMXs-IRES-Blasticidin
T3 sequence (P00533 25-1210): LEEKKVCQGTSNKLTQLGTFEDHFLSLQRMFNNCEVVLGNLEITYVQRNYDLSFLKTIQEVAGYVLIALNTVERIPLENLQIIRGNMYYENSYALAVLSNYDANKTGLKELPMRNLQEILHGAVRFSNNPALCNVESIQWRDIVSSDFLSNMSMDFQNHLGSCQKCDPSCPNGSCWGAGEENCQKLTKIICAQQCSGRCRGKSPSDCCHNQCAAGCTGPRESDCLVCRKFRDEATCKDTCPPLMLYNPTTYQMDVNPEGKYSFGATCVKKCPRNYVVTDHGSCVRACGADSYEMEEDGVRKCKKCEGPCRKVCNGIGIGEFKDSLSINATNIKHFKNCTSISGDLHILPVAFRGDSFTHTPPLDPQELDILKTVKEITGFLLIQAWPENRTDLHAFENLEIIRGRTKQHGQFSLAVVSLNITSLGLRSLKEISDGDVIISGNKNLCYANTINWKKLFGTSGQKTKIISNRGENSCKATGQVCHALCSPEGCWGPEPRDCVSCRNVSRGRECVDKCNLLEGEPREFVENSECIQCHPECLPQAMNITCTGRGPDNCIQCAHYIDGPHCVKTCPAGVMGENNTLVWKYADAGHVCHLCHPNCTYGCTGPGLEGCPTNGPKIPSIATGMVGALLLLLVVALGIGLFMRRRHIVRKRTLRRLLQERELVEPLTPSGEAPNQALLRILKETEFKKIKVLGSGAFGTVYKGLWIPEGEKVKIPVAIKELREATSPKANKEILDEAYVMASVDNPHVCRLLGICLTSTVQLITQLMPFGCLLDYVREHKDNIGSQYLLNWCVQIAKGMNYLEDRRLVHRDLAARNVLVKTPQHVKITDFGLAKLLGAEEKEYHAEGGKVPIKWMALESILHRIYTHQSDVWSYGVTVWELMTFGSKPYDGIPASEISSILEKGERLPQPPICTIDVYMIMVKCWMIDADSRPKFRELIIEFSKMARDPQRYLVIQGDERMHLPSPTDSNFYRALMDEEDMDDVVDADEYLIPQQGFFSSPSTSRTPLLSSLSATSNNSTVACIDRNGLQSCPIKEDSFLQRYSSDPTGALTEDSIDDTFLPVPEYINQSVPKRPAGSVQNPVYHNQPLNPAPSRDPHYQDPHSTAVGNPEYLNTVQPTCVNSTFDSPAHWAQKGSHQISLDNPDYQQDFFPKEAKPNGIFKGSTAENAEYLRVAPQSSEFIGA
Description: as §1, §2, §3

HER2 YVMA = molecular target: T4, HER2 YVMA (Homo sapiens, UniProt P04626, INS775YVMA); test: BaF3 cell proliferation assay (CellTiterGlo), HER2 YVMA
T4 construct: expressed in transfected cells; host or cells: BaF3 (murine pro-B) cells
T4 sequence (P04626 with tags, fused parts or gaps INS775YVMA): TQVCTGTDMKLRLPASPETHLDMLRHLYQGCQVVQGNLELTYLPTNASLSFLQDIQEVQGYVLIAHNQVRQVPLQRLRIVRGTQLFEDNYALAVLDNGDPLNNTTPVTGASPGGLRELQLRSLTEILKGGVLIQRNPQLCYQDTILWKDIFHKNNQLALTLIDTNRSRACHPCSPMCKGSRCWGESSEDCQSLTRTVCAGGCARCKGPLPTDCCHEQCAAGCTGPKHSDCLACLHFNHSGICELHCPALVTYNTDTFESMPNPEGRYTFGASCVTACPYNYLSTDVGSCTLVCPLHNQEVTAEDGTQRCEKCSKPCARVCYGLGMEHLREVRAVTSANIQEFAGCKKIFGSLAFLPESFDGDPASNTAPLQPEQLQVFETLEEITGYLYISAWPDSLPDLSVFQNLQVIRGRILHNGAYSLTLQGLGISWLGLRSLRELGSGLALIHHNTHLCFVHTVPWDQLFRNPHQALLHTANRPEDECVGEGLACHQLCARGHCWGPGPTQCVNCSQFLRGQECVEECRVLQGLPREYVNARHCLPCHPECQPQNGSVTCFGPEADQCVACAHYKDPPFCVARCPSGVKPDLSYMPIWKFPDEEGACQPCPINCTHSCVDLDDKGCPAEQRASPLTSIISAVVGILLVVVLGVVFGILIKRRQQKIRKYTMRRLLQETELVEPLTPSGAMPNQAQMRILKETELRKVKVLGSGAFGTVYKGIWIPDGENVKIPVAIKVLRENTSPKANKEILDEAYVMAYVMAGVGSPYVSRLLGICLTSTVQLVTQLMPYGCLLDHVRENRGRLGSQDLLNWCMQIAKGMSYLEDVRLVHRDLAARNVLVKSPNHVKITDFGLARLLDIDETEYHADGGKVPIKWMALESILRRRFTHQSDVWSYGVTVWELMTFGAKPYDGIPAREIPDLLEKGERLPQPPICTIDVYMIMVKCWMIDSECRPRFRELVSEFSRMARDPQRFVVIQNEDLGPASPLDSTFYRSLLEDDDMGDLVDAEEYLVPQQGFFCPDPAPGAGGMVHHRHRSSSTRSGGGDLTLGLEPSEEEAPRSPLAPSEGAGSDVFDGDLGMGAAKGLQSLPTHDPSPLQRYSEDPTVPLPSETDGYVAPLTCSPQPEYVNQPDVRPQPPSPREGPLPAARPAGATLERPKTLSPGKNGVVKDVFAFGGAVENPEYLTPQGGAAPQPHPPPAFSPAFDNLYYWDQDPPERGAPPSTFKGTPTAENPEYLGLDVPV

T1 sequence (P04626 23-1255 S310F): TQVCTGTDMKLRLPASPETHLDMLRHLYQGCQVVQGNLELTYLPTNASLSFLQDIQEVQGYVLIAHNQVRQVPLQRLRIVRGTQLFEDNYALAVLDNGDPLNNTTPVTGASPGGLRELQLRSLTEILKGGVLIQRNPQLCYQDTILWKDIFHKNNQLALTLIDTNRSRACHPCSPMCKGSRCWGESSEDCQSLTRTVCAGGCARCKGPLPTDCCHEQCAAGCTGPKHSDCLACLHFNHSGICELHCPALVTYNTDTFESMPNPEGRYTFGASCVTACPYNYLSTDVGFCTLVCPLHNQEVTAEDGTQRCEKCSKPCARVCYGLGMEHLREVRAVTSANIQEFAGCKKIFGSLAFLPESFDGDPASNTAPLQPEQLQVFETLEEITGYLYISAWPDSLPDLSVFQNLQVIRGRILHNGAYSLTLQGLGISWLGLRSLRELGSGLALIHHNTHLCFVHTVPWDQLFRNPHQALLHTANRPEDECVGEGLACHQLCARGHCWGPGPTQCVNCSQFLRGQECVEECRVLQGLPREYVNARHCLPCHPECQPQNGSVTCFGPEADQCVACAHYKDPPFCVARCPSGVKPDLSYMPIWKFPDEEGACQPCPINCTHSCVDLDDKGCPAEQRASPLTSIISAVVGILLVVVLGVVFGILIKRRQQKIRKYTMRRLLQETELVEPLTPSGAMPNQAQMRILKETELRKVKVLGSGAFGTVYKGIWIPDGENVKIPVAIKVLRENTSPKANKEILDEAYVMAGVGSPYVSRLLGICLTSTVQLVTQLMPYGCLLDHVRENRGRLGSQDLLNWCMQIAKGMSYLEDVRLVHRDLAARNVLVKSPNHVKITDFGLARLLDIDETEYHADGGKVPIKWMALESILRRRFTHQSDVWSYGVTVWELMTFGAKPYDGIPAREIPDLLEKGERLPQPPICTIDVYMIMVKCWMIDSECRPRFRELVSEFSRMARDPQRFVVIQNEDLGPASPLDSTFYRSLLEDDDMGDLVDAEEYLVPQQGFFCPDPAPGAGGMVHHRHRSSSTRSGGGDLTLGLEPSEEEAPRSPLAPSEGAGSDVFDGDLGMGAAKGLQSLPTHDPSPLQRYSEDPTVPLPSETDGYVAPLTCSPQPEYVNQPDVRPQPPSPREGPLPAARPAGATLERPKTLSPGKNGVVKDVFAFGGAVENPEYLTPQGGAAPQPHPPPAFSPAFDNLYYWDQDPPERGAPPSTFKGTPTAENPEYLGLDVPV

| SMILES | IC50 (HER2 S310F) [nM] | IC50 (EGFR V3) [nM] | IC50 (EGFR wt) [nM] | IC50 (HER2 YVMA) [nM] |
| --- | --- | --- | --- | --- |
| CN1C[C@H]2C[C@@]2(C#Cc2cc3ncnc(Nc4cccc(Cl)c4F)c3cc2NC(=O)C#CCN2CCOCC2)C1 [Compound 18, N-(4-((3-chloro-2-fluorophenyl)amino)-7-(((1R,5S)-3-methyl-3-azabicyclo[3.1.0]hexan-1-yl)ethynyl)quinazolin-6-yl)-4-morpholinobut-2-ynamide] | ≤ 50 | ≤ 50 | – | – |
| CN1C[C@H]2C[C@@]2(C#Cc2cc3ncnc(Nc4cccc(Cl)c4F)c3cc2NC(=O)/C=C/CN2C3COCC2C3)C1 [Compound 20, (E)-4-(3-oxa-6-azabicyclo[3.1.1]heptan-6-yl)-N-(4-((3-chloro-2-fluorophenyl)amino)-7-(((1R,5S)-3-methyl-3-azabicyclo[3.1.0]hexan-1-yl)ethynyl)quinazolin-6-yl)but-2-enamide] | ≤ 50 | ≤ 50 | 100 to 500 | – |
| CCC(=O)Nc1cc2c(Nc3cccc(Cl)c3F)ncnc2cc1C#C[C@@]1(C)CCN(C)C1 [Compound 22, (R)—N-(4-((3-chloro-2-fluorophenyl)amino)-7-((1,3-dimethylpyrrolidin-3-yl)ethynyl)quinazolin-6-yl)propionamide] | > 500 | > 500 | – | – |
| C/C=C/C(=O)Nc1cc2c(Nc3cccc(Cl)c3F)ncnc2cc1C#C[C@@]1(C)CCN(C)C1 [Compound 27, (R,E)-N-(4-((3-chloro-2-fluorophenyl)amino)-7-((1,3-dimethylpyrrolidin-3-yl)ethynyl)quinazolin-6-yl)but-2-enamide] | – | > 500 | 100 to 500 | > 500 |
| C=CC(=O)Nc1cc2c(Nc3ccc(Oc4ccn5ncnc5c4)c(C)c3)ncnc2cc1C#CC12CC1CN(C)C2 (stereo not shown) [Compound 28, N-(4-((4-([1,2,4]triazolo[1,5-a]pyridin-7-yloxy)-3-methylphenyl)amino)-7-((3-methyl-3-azabicyclo[3.1.0]hexan-1-yl)ethynyl)quinazolin-6-yl)acrylamide] | – | ≤ 50 | > 500 | ≤ 50 |
| C=CC(=O)Nc1cc2c(Nc3cc(Cl)ccc3F)ncnc2cc1C#CC1(C)COC1 [Compound 29, N-(4-((5-chloro-2-fluorophenyl)amino)-7-((3-methyloxetan-3-yl)ethynyl)quinazolin-6-yl)acrylamide] | – | 100 to 500 | 100 to 500 | > 500 |
| C=CC(=O)Nc1cc2c(Nc3cccc(Cl)c3F)ncnc2cc1C#CC1(C)COC1 [Compound 30, N-(4-((3-chloro-2-fluorophenyl)amino)-7-((3-methyloxetan-3-yl)ethynyl)quinazolin-6-yl)acrylamide] | – | ≤ 50 | 50 to 100 | 50 to 100 |
| C=C(CO)C(=O)Nc1cc2c(Nc3cccc(Cl)c3F)ncnc2cc1C#C[C@@]1(C)CCN(C)C1 [Compound 31, (R)—N-(4-((3-chloro-2-fluorophenyl)amino)-7-((1,3-dimethylpyrrolidin-3-yl)ethynyl)quinazolin-6-yl)-2-(hydroxymethyl)acrylamide] | – | 50 to 100 | ≤ 50 | 100 to 500 |
| C=CC(=O)Nc1cc2c(Nc3cccc(Cl)c3F)ncnc2cc1C#CC1(C)CN(C)CCO1 (stereo not shown) [Compound 32, N-(4-((3-chloro-2-fluorophenyl)amino)-7-((2,4-dimethylmorpholin-2-yl)ethynyl)quinazolin-6-yl)acrylamide] | – | ≤ 50 | > 500 | > 500 |
| C=CC(=O)Nc1cc2c(Nc3ccc(Cl)c(Cl)c3F)ncnc2cc1C#C[C@]12C[C@H]1CN(C)C2 [Compound 33, N-(4-((3,4-dichloro-2-fluorophenyl)amino)-7-(((1S,5R)-3-methyl-3-azabicyclo[3.1.0]hexan-1-yl)ethynyl)quinazolin-6-yl)acrylamide] | – | ≤ 50 | ≤ 50 | ≤ 50 |
| C=CC(=O)Nc1cc2c(Nc3ccc(Cl)c(Cl)c3F)ncnc2cc1C#C[C@@]12C[C@@H]1CN(C)C2 [Compound 34] | – | ≤ 50 | ≤ 50 | ≤ 50 |
| C=CC(=O)Nc1cc2c(Nc3cccc(Cl)c3F)ncnc2cc1C#C[C@@]1(OC)CCN(C)C1 [Compound 35, (S)—N-(4-((3-chloro-2-fluorophenyl)amino)-7-((3-methoxy-1-methylpyrrolidin-3-yl)ethynyl)quinazolin-6-yl)acrylamide] | – | ≤ 50 | ≤ 50 | ≤ 50 |
| C=CC(=O)Nc1cc2c(Nc3cccc(Cl)c3F)ncnc2cc1C#C[C@]1(OC)CCN(C)C1 [Compound 36, (R)—N-(4-((3-chloro-2-fluorophenyl)amino)-7-((3-methoxy-1-methylpyrrolidin-3-yl)ethynyl)quinazolin-6-yl)acrylamide] | – | ≤ 50 | ≤ 50 | ≤ 50 |
| CC#CC(=O)Nc1cc2c(Nc3cccc(Cl)c3F)ncnc2cc1C#C[C@@]12C[C@@H]1CN(C)C2 [Compound 38, N-(4-((3-chloro-2-fluorophenyl)amino)-7-(((1R,5S)-3-methyl-3-azabicyclo[3.1.0]hexan-1-yl)ethynyl)quinazolin-6-yl)but-2-ynamide] | – | ≤ 50 | 50 to 100 | 100 to 500 |
| CC(C)/C=C/C(=O)Nc1cc2c(Nc3cccc(Cl)c3F)ncnc2cc1C#C[C@@]1(C)CCN(C)C1 [Compound 39, (E)-N-[4-(3-chloro-2-fluoro-anilino)-7-[2-[(3R)-1,3-dimethylpyrrolidin-3-yl]ethynyl]quinazolin-6-yl]-4-methyl-pent-2-enamide] | – | > 500 | 50 to 100 | > 500 |
| C=CC(=O)Nc1cc2c(Nc3ccc(Oc4ccccc4)cc3)ncnc2cc1C#C[C@@]12C[C@@H]1CN(C)C2 [Compound 40, N-(7-(((1R,5S)-3-methyl-3-azabicyclo[3.1.0]hexan-1-yl)ethynyl)-4-((4-phenoxyphenyl)amino)quinazolin-6-yl)acrylamide] | – | ≤ 50 | 100 to 500 | 100 to 500 |
| C=CC(=O)Nc1cc2c(Nc3cccc(Cl)c3F)ncnc2cc1C#C[C@]12C[C@H]1CN(C(C)C)C2 [Compound 42, N-(4-((3-chloro-2-fluorophenyl)amino)-7-(((1S,5R)-3-isopropyl-3-azabicyclo[3.1.0]hexan-1-yl)ethynyl)quinazolin-6-yl)acrylamide] | – | ≤ 50 | ≤ 50 | ≤ 50 |
| COC(=O)Nc1cc2c(Nc3cccc(Cl)c3F)ncnc2cc1C#CC1(C)CCN(C)C1 (stereo not shown) [Compound 43, Methyl (4-((3-chloro-2-fluorophenyl)amino)-7-((1,3-dimethylpyrrolidin-3-yl)ethynyl)quinazolin-6-yl)carbamate] | – | > 500 | ≤ 50 | > 500 |
| CN(C)C/C=C/C(=O)Nc1cc2c(Nc3cccc(Cl)c3F)ncnc2cc1C#CC1(C)CCOC1 (stereo not shown) [Compound 44, (E)-N-(4-((3-chloro-2-fluorophenyl)amino)-7-((3-methyltetrahydrofuran-3-yl)ethynyl)quinazolin-6-yl)-4-(dimethylamino)but-2-enamide] | – | ≤ 50 | ≤ 50 | ≤ 50 |
| CN1CC[C@](C)(C#Cc2cc3ncnc(Nc4cccc(Cl)c4F)c3cc2NC(=O)CC#N)C1 [Compound No. 84, (R)—N-(4-((3-chloro-2-fluorophenyl)amino)-7-((1,3-dimethylpyrrolidin-3-yl)ethynyl)quinazolin-6-yl)-2-cyanoacetamide] | – | > 500 | > 500 | > 500 |
